# Experimental data taken from publication PMC11057469, “Quantitative cross-species comparison of serum albumin binding of per- and polyfluoroalkyl substances from five structural classes” (Toxicological Sciences, 2024).
# Like-named read-outs stand apart in the source and are kept apart here.
# Legend:
# [1] = molecular target: Bovine serum albumin (BSA) (Bos taurus, UniProt P02769); assay: in vitro; details: for difference in binding affinity, BSA affinity lower than HSA: BSA compared with HSA; for ΔTm: bovine, pH 7.4
# Procedure: (§1) A minimum of 2 independent plates were run for each protein-ligand combination, with 3 replicates per sample on each plate. Controls on each plate included a no protein control, matching vehicle control (no ligand), and 3 concentrations of OA (1, 2, 3 mM) and/or PFHxA (0.3, 1, 3 mM) as positive controls. The concentration of albumin that yielded maximal signal-to-noise ratio was optimized for each species. […] For concentration-response analyses, PFAS stock solutions were serially diluted into HBS.
# [2] = molecular target: human serum albumin (HSA) (Homo sapiens, UniProt P02768); assay: in vitro
# Procedure: (§2) Serum albumin stocks (1 mM) were prepared by reconstituting lyophilized stocks in HBS, with expected protein concentrations confirmed using the colorimetric Bio-Rad DC Protein Assay (Hercules, California).
# as §1
# [3] = molecular target: porcine serum albumin (PSA) (Sus scrofa, UniProt P08835); assay: in vitro; details: for ΔTm: pig, pH 7.4
# Procedure: as §2, §1
# Rat serum albumin (RSA) = Rat serum albumin (RSA) (Rattus norvegicus, UniProt P02770); assay: in vitro; details: for ΔTm: rat, pH 7.4; for difference in binding affinity, RSA affinity greater than HSA: RSA compared with HSA, from DSF Kd
# Procedure: as §2, §1
# [4] = pig, after oral exposure; ref Fasano et al., 2006; Xie et al., 2020; cited from earlier work
# [5] = rat, after oral exposure; ref Fasano et al., 2006; Xie et al., 2020; cited from earlier work
# [6] = elimination half-life in serum/plasma, Human, cited from earlier work
# [7] = elimination half-life in serum/plasma, Rat, cited from earlier work
# [8] = design: method as in Numata et al., 2014; details: elimination half-life in serum/plasma, Pig; ref Numata et al., 2014; cited from earlier work
# [9] = design: method as in Death et al., 2021; details: elimination half-life in serum/plasma, Cow; ref Death et al., 2021; cited from earlier work
# [10] = BSA, 1 = highest relative affinity, 4 = lowest
# [11] = HSA, 1 = highest relative affinity, 4 = lowest
# [12] = PSA, 1 = highest relative affinity, 4 = lowest
# [13] = RSA, 1 = highest relative affinity, 4 = lowest
# [14] = PSA compared with HSA, from DSF Kd
# Sequence of human serum albumin (HSA) (P02768 25-609): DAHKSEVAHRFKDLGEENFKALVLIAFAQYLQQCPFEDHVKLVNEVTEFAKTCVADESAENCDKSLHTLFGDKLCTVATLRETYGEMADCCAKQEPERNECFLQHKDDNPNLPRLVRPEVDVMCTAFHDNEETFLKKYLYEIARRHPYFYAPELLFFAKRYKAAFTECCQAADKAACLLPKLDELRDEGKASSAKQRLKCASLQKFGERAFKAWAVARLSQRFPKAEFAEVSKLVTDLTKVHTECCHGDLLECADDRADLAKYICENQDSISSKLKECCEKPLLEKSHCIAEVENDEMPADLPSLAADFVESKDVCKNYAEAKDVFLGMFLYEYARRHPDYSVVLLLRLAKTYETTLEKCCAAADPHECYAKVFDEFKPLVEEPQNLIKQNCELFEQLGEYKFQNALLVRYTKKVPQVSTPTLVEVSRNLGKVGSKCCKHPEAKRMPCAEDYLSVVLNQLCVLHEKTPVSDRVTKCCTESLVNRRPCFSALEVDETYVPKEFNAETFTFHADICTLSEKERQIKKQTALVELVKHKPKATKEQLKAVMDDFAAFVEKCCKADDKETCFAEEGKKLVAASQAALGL
# Sequence of Bovine serum albumin (BSA) (P02769 25-607): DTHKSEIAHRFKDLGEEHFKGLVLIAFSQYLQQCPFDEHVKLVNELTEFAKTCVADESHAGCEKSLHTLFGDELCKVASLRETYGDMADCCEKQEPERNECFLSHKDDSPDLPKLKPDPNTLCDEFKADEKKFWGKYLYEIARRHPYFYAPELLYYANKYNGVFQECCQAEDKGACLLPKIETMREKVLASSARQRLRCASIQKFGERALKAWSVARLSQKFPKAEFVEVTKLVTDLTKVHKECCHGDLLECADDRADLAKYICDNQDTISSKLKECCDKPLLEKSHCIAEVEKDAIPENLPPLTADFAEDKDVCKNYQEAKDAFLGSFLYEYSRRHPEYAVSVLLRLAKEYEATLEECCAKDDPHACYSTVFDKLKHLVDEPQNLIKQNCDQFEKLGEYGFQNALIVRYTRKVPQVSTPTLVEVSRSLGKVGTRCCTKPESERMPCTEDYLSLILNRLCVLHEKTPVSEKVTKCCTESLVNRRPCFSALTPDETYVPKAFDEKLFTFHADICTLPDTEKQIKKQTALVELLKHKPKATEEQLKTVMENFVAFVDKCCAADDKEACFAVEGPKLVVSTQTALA
# Sequence of Rat serum albumin (RSA) (P02770 25-608): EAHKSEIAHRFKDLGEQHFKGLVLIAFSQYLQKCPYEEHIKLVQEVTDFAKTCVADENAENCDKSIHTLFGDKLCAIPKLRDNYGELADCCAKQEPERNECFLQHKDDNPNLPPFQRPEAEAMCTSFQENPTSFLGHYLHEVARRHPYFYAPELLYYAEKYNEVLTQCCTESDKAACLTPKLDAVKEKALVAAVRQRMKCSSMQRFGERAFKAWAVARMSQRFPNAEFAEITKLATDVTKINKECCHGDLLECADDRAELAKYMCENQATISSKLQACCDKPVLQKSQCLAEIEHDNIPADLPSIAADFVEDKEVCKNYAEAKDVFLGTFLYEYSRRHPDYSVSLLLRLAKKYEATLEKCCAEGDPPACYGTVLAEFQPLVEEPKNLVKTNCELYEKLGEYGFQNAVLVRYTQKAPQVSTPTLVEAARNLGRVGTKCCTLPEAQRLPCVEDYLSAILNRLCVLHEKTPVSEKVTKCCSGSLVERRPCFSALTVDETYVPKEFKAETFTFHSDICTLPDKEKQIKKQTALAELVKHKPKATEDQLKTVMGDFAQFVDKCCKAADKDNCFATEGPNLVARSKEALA
# Sequence of porcine serum albumin (PSA) (P08835 25-607): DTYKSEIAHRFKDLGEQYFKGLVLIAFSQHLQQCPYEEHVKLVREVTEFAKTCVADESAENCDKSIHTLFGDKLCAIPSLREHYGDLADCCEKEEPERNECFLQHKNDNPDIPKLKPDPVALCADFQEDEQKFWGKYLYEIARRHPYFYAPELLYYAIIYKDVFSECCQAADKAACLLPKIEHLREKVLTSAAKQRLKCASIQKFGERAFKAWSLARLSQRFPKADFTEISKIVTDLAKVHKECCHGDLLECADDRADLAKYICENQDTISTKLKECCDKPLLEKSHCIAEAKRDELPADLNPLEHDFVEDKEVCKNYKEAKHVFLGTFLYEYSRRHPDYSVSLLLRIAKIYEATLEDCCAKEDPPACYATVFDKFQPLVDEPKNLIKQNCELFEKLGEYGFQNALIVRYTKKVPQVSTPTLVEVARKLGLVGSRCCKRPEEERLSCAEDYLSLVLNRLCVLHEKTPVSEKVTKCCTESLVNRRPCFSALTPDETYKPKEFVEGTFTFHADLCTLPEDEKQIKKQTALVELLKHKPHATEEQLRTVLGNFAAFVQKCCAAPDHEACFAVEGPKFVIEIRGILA
structure (smiles),measurement,setting,value
"OCCC(F)(F)C(F)(F)C(F)(F)C(F)(F)C(F)(F)C(F)(F)F [6:2 FTOH, 1H, 1H, 2H, 2H-perfluorooctanol]","ΔTm, maximum change in melting temperature","[1]; BSA 0.18 mM, DSF, value (±SEM), N/A = nonbinding",no changes in albumin TM were detected
same,"ΔTm, maximum change in melting temperature","[2]; HSA 0.13 mM, DSF, value (±SEM), N/A = nonbinding",no changes in albumin TM were detected
same,"ΔTm, maximum change in melting temperature","[3]; PSA 0.11 mM, DSF, value (±SEM), N/A = nonbinding",no changes in albumin TM were detected
same,"ΔTm, maximum change in melting temperature","Rat serum albumin (RSA); RSA 0.18 mM, DSF, value (±SEM), N/A = nonbinding",no changes in albumin TM were detected
"O=S(=O)(O)CCC(F)(F)C(F)(F)C(F)(F)C(F)(F)C(F)(F)C(F)(F)F [6:2 FTSA, 2H, 2H, 3H, 3H-perfluorooctane-1-sulfonate]",Kd,[1],1.39 mM
same,"difference in binding affinity, BSA affinity lower than HSA",[1]; from DSF Kd,108.9%
same,rank order of binding affinity among the four albumins,[1]; [10],4
same,ΔTm,[1],17.2 °C
same,rank order of binding affinity among the four albumins,[2]; [11],2
same,ΔTm,"[2]; human, pH 7.4",3.53 °C
same,rank order of binding affinity among the four albumins,[3]; [12],3
same,ΔTm,[3],8.72 °C
same,rank order of binding affinity among the four albumins,Rat serum albumin (RSA); [13],1
same,ΔTm,Rat serum albumin (RSA),7.99 °C
OCCC(F)(F)C(F)(F)C(F)(F)C(F)(F)C(F)(F)C(F)(F)C(F)(F)C(F)(F)F [8:2 FTOH],accumulation in tissues,[4],did not accumulate
same,accumulation in tissues,[5],did not accumulate
"O=C(O)C(F)(OC(F)(F)C(F)(F)C(F)(F)F)C(F)(F)F (centres unmarked) [HFPO-DA, hexafluoropropylene oxide-dimer acid]",Kd,[1],2.55 mM
same,"difference in binding affinity, BSA affinity lower than HSA",[1]; from DSF Kd,47.6%
same,rank order of binding affinity among the four albumins,[1]; [10],4
same,Kd,[2],1.57 mM
same,rank order of binding affinity among the four albumins,[2]; [11],1
same,Kd,[3],2.12 mM
same,"difference in binding affinity, HSA affinity greater than PSA","[3]; HSA compared with PSA, from DSF Kd",29.8%
same,rank order of binding affinity among the four albumins,[3]; [12],3
same,Kd,Rat serum albumin (RSA),1.64 mM
same,rank order of binding affinity among the four albumins,Rat serum albumin (RSA); [13],2
"O=C(O)C(F)(F)C(F)(F)C(F)(F)F [PFBA, Perfluorobutanoic acid]",Kd,[1],3.06 mM
same,rank order of binding affinity among the four albumins,[1]; [10],4
same,Half-life,"[6]; ref Pizzurro et al., 2019",3.1 days^a
same,Kd,[2],2.64 mM
same,rank order of binding affinity among the four albumins,[2]; [11],3
same,Kd,[3],1.28 mM
same,"difference in binding affinity, PSA affinity greater than HSA",[3]; [14],69.4%
same,rank order of binding affinity among the four albumins,[3]; [12],1
same,Kd,Rat serum albumin (RSA),1.9 mM
same,rank order of binding affinity among the four albumins,Rat serum albumin (RSA); [13],2
same,Half-life,"[7]; ref Pizzurro et al., 2019",1–9.2 h^a
"O=S(=O)(O)C(F)(F)C(F)(F)C(F)(F)C(F)(F)F [PFBS, perfluorobutanesulfonic acid]",Half-life,[8],43 days^d
same,rank order of binding affinity among the four albumins,[1]; [10],1
same,"difference in binding affinity, HSA affinity lower than BSA","[1]; HSA compared with BSA, from DSF Kd",71.0%
same,Half-life,"[6]; ref Pizzurro et al., 2019",25.8 days^a
same,Kd,[2],1.68 mM
same,rank order of binding affinity among the four albumins,[2]; [11],4
same,Kd,[3],1.25 mM
same,"difference in binding affinity, PSA affinity greater than HSA",[3]; [14],29.4%
same,rank order of binding affinity among the four albumins,[3]; [12],2
same,Kd,Rat serum albumin (RSA),1.41 mM
same,"difference in binding affinity, RSA affinity greater than HSA",Rat serum albumin (RSA),17.5%
same,rank order of binding affinity among the four albumins,Rat serum albumin (RSA); [13],3
same,Half-life,"[7]; ref Pizzurro et al., 2019",0.6–7.4 h^a
"O=C(O)C(F)(F)C(F)(F)C(F)(F)C(F)(F)C(F)(F)F [PFHxA, Perfluorohexanoic acid]",Half-life,[8],4.1 days^d
same,Kd,[1],2.17 mM
same,"difference in binding affinity, BSA affinity lower than HSA",[1]; from DSF Kd,23.7%
same,rank order of binding affinity among the four albumins,[1]; [10],4
same,Half-life,"[6]; ref Lau, 2015",32 days^b
same,Kd,[2],1.71 mM
same,rank order of binding affinity among the four albumins,[2]; [11],3
same,Kd,[3],0.95 mM
same,"difference in binding affinity, PSA affinity greater than HSA",[3]; [14],57.1%
same,rank order of binding affinity among the four albumins,[3]; [12],1
same,Kd,Rat serum albumin (RSA),1.33 mM
same,rank order of binding affinity among the four albumins,Rat serum albumin (RSA); [13],2
same,Half-life,"[7]; ref Russell et al., 2013",0.4–9.8 h^e
"O=C(O)C(F)(F)C(F)(F)C(F)(F)C(F)(F)C(F)(F)C(F)(F)C(F)(F)F [PFOA, perfluorooctanoic acid]",Half-life,[9],0.8–1.3 days^c
same,Half-life,[8],236 days^d
same,Kd,[1],0.99 mM
same,"difference in binding affinity, BSA affinity lower than HSA",[1]; from DSF Kd,22.5%
same,rank order of binding affinity among the four albumins,[1]; [10],4
same,binding affinity of 8-carbon congener greater than 4-carbon congener,"[1]; BSA, PFOA vs PFBA",102.2%
same,Half-life,"[6]; ref Pizzurro et al., 2019",2.3–8.5 years^a
same,Kd,[2],0.79 mM
same,rank order of binding affinity among the four albumins,[2]; [11],3
same,binding affinity of 8-carbon congener greater than 4-carbon congener,"[2]; HSA, PFOA vs PFBA, PFOS vs PFBS",107.9%
same,Kd,[3],0.37 mM
same,"difference in binding affinity, PSA affinity greater than HSA",[3]; [14],72.4%
same,rank order of binding affinity among the four albumins,[3]; [12],1
same,binding affinity of 8-carbon congener greater than 4-carbon congener,"[3]; PSA, PFOA vs PFBA, PFOS vs PFBS",110.3%
same,Kd,Rat serum albumin (RSA),0.4 mM
same,"difference in binding affinity, RSA affinity greater than HSA",Rat serum albumin (RSA),65.5%
same,rank order of binding affinity among the four albumins,Rat serum albumin (RSA); [13],2
same,binding affinity of 8-carbon congener greater than 4-carbon congener,"Rat serum albumin (RSA); RSA, PFOA vs PFBA, PFOS vs PFBS",130.4%
same,Half-life,"[7]; ref Pizzurro et al., 2019",0.1–15 days^a
"O=S(=O)(O)C(F)(F)C(F)(F)C(F)(F)C(F)(F)C(F)(F)C(F)(F)C(F)(F)C(F)(F)F [PFOS, perfluorooctanesulfonic acid]",Half-life,[9],39–120 days^c
same,Half-life,[8],1.7 years^d
same,hill slope of the biphasic melt curve,[1],3.5 ± 0.3
same,rank order of binding affinity among the four albumins,[1],4
same,ΔTm,[1],15.3 °C
same,Half-life,"[6]; ref Pizzurro et al., 2019",3.3–5.4 years^a
same,Kd,[2],0.69 mM
same,binding affinity of 8-carbon congener greater than 4-carbon congener,[2],83.5%
same,rank order of binding affinity among the four albumins,[2],3
same,Kd,"[2]; human, pH 7.4",0.62 mM
same,ΔTm,"[2]; human, pH 7.4",15.9 °C
same,binding affinity of 8-carbon congener greater than 4-carbon congener,[3],106.7%
same,"difference in binding affinity, PSA affinity greater than HSA",[3],57.9%
same,rank order of binding affinity among the four albumins,[3],1
same,ΔTm,[3],5.74 °C
same,binding affinity of 8-carbon congener greater than 4-carbon congener,Rat serum albumin (RSA),108.2%
same,rank order of binding affinity among the four albumins,Rat serum albumin (RSA),2
same,ΔTm,Rat serum albumin (RSA),4.76 °C
same,Half-life,"[7]; ref Pizzurro et al., 2019",24–83 days^a
